Test results as given in PubChem BioAssay (NCI).
Values joined by “and” are separate entries in the source; they are usually repeats but may differ in a detail not shown here. Equal values may be shown once.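 Results reflect a 48-hour exposure of cells in 96-well plates to compound at five concentrations. GI50 marks 50% less growth. TGI denotes the concentration required for complete inhibition of growth.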

Legend:
Assay in all cases: NCI-60 cell line screen, 48 h
[1] = test system: NCI-H460 lung
[2] = test system: M14 melanoma
[3] = test system: HT29 colon
[4] = test system: SK-MEL-5 melanoma
[5] = test system: SK-MEL-2 melanoma
[6] = test system: CCRF-CEM leukemia
[7] = test system: ACHN renal
[8] = test system: HOP-92 NSCLC
[9] = test system: OVCAR-3 ovarian
[10] = test system: DU-145 prostate
[11] = test system: HOP-62 NSCLC
[12] = test system: 786-0 renal
[13] = test system: CAKI-1 renal
[14] = test system: K-562 leukemia
[15] = test system: HCC-2998 colon
[16] = test system: MALME-3M melanoma
[17] = test system: NCI-H522 lung

Compound | TGI [1] | TGI [2] | TGI [3] | TGI [4] | TGI [5] | TGI [6] | TGI [7] | TGI [8] | TGI [9] | TGI [10] | TGI [11] | TGI [12] | TGI [13] | TGI [14] | TGI [15] | TGI [16] | TGI [17] | GI50 [8] | GI50 [13] | GI50 [14]
CC1(C)CC(=O)c2c(nc3ccc4ccccc4c3c2-c2ccc(NC(=O)CCCC(=O)Nc3ccc(-c4c5c(nc6ccc7ccccc7c46)CC(C)(C)CC5=O)cc3)cc2)C1 | > 100 µM | > 100 µM | > 100 µM | > 100 µM | > 100 µM | > 100 µM | > 100 µM | > 100 µM | > 100 µM | > 100 µM | > 100 µM | > 100 µM | > 100 µM | > 100 µM | – | – | – | – | – | –
C/C(=N\Nc1nc2ccccc2s1)c1ncccn1 | 15.6 µM | – | – | 0.219 µM | 4.46 µM | > 100 µM | 0.177 µM | 1.1 µM | 2.06 µM | > 100 µM | 5.78 µM | 15.8 µM | 5.62 µM | > 100 µM | 11.9 µM | > 100 µM | 16.5 µM | – | – | –
O=C(CN1CCNCCN(CC(=O)N2CCCCC2)CCNCC1)N1CCCCC1 | > 100 µM | > 100 µM | > 100 µM | > 100 µM | > 100 µM | > 100 µM | > 100 µM | > 100 µM | > 100 µM | > 100 µM | > 100 µM | > 100 µM | > 100 µM | > 100 µM | – | > 100 µM | > 100 µM | – | – | –
COc1cccc(/C=C2/Sc3scc(-c4ccccc4)[n+]3C2=O)c1O | 37.9 µM | > 100 µM | 37.3 µM | 31.1 µM | 89.8 µM | 30.4 µM | 40.9 µM | 51.2 µM | 95.3 µM | 56.9 µM | 68.4 µM | 32.1 µM | 47.7 µM | – | 30.7 µM | – | 52.8 µM | – | – | –
C#CCOCC12C=CC(O1)C1C(=O)N(C)C(=O)C12 (configuration not stated) | > 100 µM | > 100 µM | > 100 µM | > 100 µM | – | > 100 µM | > 100 µM | > 100 µM | > 100 µM | > 100 µM | > 100 µM | > 100 µM | > 100 µM | > 100 µM | > 100 µM | > 100 µM | > 100 µM | > 100 µM | > 100 µM | 46.4 µM and > 100 µM
CN(C)CCNC(=O)c1cccc2c(NCC(=O)O)c3ccccc3nc12 | – | 52.2 µM | 17.7 µM | 67.3 µM | 37.4 µM | > 100 µM | > 100 µM | > 100 µM | > 100 µM | > 100 µM | 82.5 µM | 62.7 µM | – | > 100 µM | – | 35.9 µM | 35.3 µM | – | – | –
O=C(NNC1=NCCN1)c1ccco1 | > 100 µM | > 100 µM | > 100 µM | > 100 µM | > 100 µM | > 100 µM | > 100 µM | > 100 µM | > 100 µM | > 100 µM | > 100 µM | > 100 µM | – | > 100 µM | > 100 µM | > 100 µM | > 100 µM | – | – | –
CCOC(=O)c1sc2c(c1OC(=O)c1cccs1)c(=O)n(-c1ccccc1)c(=S)n2-c1ccccc1 | 12.4 µM | 33.4 µM | 17.2 µM | 32 µM | – | 36 µM | 37.6 µM | 52.7 µM | 60.6 µM | 94.1 µM | 50.3 µM | 24.4 µM | 75.8 µM | > 100 µM | 36.5 µM | 31.5 µM | 27.1 µM | – | – | –
O=c1cc(-c2cccc(Cl)c2)[nH]c2ncccc12 | > 100 µM | > 100 µM | > 100 µM | 1.92 µM | > 86.5 µM | > 100 µM | > 100 µM | > 100 µM | 0.957 µM | > 100 µM | 33.4 µM | 14.5 µM | 40.4 µM | – | – | > 100 µM | 0.914 µM | – | – | –
COc1ccc(N2C(=O)C3c4[nH]c5ccc(C)cc5c4C4CCC(C)CC4C3C2=O)cc1 (configuration not stated) | > 100 µM | > 100 µM | > 100 µM | > 100 µM | > 100 µM | > 100 µM | > 100 µM | > 100 µM | > 100 µM | > 100 µM | – | > 100 µM | > 100 µM | > 100 µM | – | > 100 µM | > 100 µM | – | – | –
CCCN(C(=O)c1c(Cl)nnc(Cl)c1C(=O)c1cc(Cl)nnc1Cl)c1cc(Cl)nnc1Cl | 70.4 µM | 40.8 µM | 43.4 µM | 21.4 µM | 33.3 µM | 10.6 µM | 25.5 µM | 36.9 µM | 26.6 µM | 27.6 µM | 48.8 µM | 21 µM | 22.3 µM | 27.4 µM | 32.3 µM | – | 13.3 µM | – | – | –
CCOC(=O)CSc1nc(-c2ccccc2)c(C#N)c(=O)[nH]1 | > 100 µM | > 100 µM | > 100 µM | > 100 µM | > 100 µM | > 100 µM | > 100 µM | > 100 µM | > 100 µM | > 100 µM | > 100 µM | > 100 µM | > 100 µM | > 100 µM | > 100 µM | – | 47 µM | – | – | –
CC1=NN(c2ccccc2)C(=O)/C1=C/c1ccc(O)cc1 | > 100 µM | > 100 µM | > 100 µM | > 100 µM | > 100 µM | > 100 µM | > 100 µM | > 100 µM | > 100 µM | > 100 µM | – | > 100 µM | > 100 µM | > 100 µM | > 100 µM | > 100 µM | – | – | – | –
O=C(NCCCCCCCCNC(=O)c1cc(-c2ccccc2)nc2ccccc12)c1cc(-c2ccccc2)nc2ccccc12 | > 100 µM | > 100 µM | > 100 µM | > 100 µM | – | > 100 µM | > 100 µM | > 100 µM | > 100 µM | > 100 µM | > 100 µM | > 100 µM | > 100 µM | > 100 µM | – | > 100 µM | > 100 µM | – | – | –
